Laboratory results published in ChEMBL document CHEMBL4673401 (ACS Med Chem Lett, 2021).

Tests used:
[1] = biological target: Tryptophan 2,3-dioxygenase (Homo sapiens, UniProt P48775); assay: Inhibition of human TDO expressed in Escherichia coli Rosetta using tryptophan as substrate incubated for 1 hr by methylene blue based assay
[2] = biological target: T1, Indoleamine 2,3-dioxygenase 1 (Homo sapiens, UniProt P14902); assay: Inhibition of human IDO1 expressed in Escherichia coli Rosetta using tryptophan as substrate incubated for 1 hr by methylene blue based assay
[3] = biological target: T1, Indoleamine 2,3-dioxygenase 1; assay: Inhibition of IDO1 in IFNgamma-stimulated human HeLa cells using L-tryptophan as substrate measured after 48 hrs

Tryptophan 2,3-dioxygenase, sequence (P48775 whole entry): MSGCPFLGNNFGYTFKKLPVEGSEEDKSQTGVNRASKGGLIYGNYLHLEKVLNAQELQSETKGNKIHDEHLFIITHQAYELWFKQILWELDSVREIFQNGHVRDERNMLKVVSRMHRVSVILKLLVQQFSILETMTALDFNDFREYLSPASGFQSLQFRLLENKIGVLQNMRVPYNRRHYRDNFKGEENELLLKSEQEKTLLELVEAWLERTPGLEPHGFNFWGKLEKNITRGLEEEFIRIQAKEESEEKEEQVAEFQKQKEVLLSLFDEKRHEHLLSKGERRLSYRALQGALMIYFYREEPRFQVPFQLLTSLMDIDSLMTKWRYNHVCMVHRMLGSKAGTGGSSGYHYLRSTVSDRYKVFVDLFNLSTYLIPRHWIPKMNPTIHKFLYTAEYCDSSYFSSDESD
T1 sequence (P14902 whole entry): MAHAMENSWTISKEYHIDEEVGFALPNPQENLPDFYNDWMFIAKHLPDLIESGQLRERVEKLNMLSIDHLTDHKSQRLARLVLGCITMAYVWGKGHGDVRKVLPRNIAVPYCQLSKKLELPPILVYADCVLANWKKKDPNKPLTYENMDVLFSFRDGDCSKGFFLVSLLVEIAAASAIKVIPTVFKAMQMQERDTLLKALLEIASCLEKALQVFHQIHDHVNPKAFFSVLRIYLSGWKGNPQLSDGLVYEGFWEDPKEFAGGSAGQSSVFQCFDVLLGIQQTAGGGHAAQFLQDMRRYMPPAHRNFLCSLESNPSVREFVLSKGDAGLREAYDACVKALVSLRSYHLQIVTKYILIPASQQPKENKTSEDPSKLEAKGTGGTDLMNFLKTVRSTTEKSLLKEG

SMILES	IC50 [1]	IC50 [2]	IC50 [3]
O=C(/C(=N/O)Nc1ccc(F)c(Br)c1)c1ccco1	> 100000 nM	467 nM	1680 nM
O=C(/C(=N/O)Nc1ccc(F)c(Br)c1)c1cncs1	11800 nM	51 nM	1770 nM
O=C(/C(=N/O)Nc1ccc(F)c(Br)c1)C1CCN(C(=O)NCc2ccccc2)CC1	89800 nM	43 nM	28 nM
O/N=C(/CC1CCCCC1)Nc1ccc(F)c(Br)c1	> 100000 nM	497 nM	578 nM
O=C(/C(=N/O)Nc1ccc(F)c(Br)c1)C1CCN(S(=O)(=O)NCc2ccccc2)CC1	> 100000 nM	24 nM	262 nM
